Results reported in US12351653B1, “Pharmaceutical compositions comprising novel cyclic peptides” (LISATA THERAPEUTICS, INC., priority 2019, dated 2025).

What was measured:
CA19-9 = test: Phase I trial (CEND-001): tumor biomarker CA19-9; type: in vivo, human; details: with nab-paclitaxel and gemcitabine
Experimental: (§1) Patients will first receive the intravenous infusion of nabpaclitaxel (125 mg/m^2 over 30 minutes (±3 minutes)).
(§2) Patients (n=31) who had measurable metastatic pancreatic cancer, no prior treatments for metastatic disease and an ECOG PS of 0 to 1 were included. Primary endpoints are safety and optimal biologic dose, secondary and exploratory endpoints included response rates, pharmacokinetics and biomarkers.
Of these, 23 patients had at least one on-treatment CA19-9 measurement.

[1] = system: metastatic pancreatic cancer; test: Phase I trial (CEND-001) of CEND-1 with gemcitabine and nab-paclitaxel: response and survival; type: in vivo, human
Experimental: as §1, §2

[2] = patients with elevated baseline CA19-9 and a postbaseline assessment (23)
[3] = with nab-paclitaxel and gemcitabine
[4] = with nab-paclitaxel and gemcitabine, RECIST 1.1, 29 evaluable patients

Ac-Cys-Arg-Gly-Asp-Lys-Gly-Pro-Asp-Cys-NH2 (Cys & Cys Bridge) [CEND-1]
Patients with a ≥50% reduction in CA19-9 from Baseline (CA19-9; Cycle 5 Day 1, 20/22 patients): 90.9%
Patients with CA19-9 decrease from baseline of at least 20% (CA19-9; [2]): 96%
Patients with CA19-9 decrease of at least 90% and/or CA19-9 levels normalized (CA19-9; [2]): 74%
Complete response ([1]; with nab-paclitaxel 125 mg/m^2 and gemcitabine 1000 mg/m^2, investigator assessed RECIST 1.1, 29 evaluable patients): 3.4%
Median time to progression [1, 3]: approximately 9.7 months
Response rates relative to the benchmark trials [1, 3]: > 2 times
Patients with progression ([1]; with nab-paclitaxel and gemcitabine, 16/29 patients): 55.2%
Confirmed objective responses (OR) ([1]; with nab-paclitaxel and gemcitabine, 17/29 patients (95% CI=38.9, 76.5)): 58.6%
Partial response [1, 4]: 55%
Progressive disease [1, 4]: 6.9%
Stable disease [1, 4]: 34%
Overall response rate (ORR) ([1]; with nab-paclitaxel and gemcitabine, all evaluable patients (N=29)): 59%
Median (IQR) PFS ([1]; with nab-paclitaxel and gemcitabine, at study closure): 9.7 months
Overall disease control rate for 16 weeks ([1]; with nab-paclitaxel and gemcitabine, evaluable patients (N=29)): 79%
